# Experimental data from patent publication US20160287515A1, “REGIMEN AND METHOD FOR TREATMENT OF TYPE 2 DIABETES” (Omniblend Innovation Pty Ltd, priority 2013, published 2016).
# System: subject on metformin (type 2 diabetes)
# Test: Blood glucose response after a standard meal under three treatment regimens (Example 1)
# Type: in vivo, human
# Conditions: control regimen: metformin 500 mg with the standard meal, no pre-meal drink; after overnight fasting
# Description: This example compares the blood glucose response in a subject on a dosage of metformin of 500 mg (immediate release dosage) taken twice per day using three different treatment regimens after overnight fasting on separate dates.
# The three treatment regimens were as follows: • 1. Regimen in accordance with the invention in which a dose of 500 mg mg of metformin as a (immediate release) tablet 30 minutes before a standard meal followed by a standard drink 15 minutes before the standard meal. Blood glucose levels with time are shown in plot 1 of FIG. 1. • 2. Control Regimen in which the metformin medication was administered with the standard meal without the pre-meal drink. Blood glucose levels with time are shown in plot 2 of FIG. 1. • 3. Comparison regimen in which the standard drink was administered 15 minutes before a meal and the metformin medication was administered with the standard meal. Blood glucose levels with time are shown in plot 3 of FIG. 1.
# The standard pre-meal drink used in Example 1 was formed of the following composition: • 20 g WPC-80 • 5 g guar gum • 150 ml water
# The drink was prepared by mixing the powder with water according to the following procedure: • 20 g of WPC80 (whey protein concentrate) and 5 g of guar gum were mixed together as a powder. […] The lid was removed ready for the participant to consume immediately. […]
compound,measurement,value
"CN(C)C(=N)N=C(N)N [metformin, Metformin]","post-prandial blood glucose with time (FIG. 1, Plot 2)",significant rise in post-prandial glucose for a period of over 60 minutes
